Experimental data published in patent US20220267310A1, “QUINAZOLINE AND CINNOLINE DERIVATIVES AS DNA-PK INHIBITOR” (MEDSHINE DISCOVERY INC., priority 2019, published 2022).

Legend:
[1] = system: human small cell lung cancer NCI-H69 xenograft tumor model; test: NCI-H69 xenograft, mono and combination with etoposide, 24-day experiment (Table 8); type: in vivo, BALB/c nude mice; conditions: for Tumor volume (mm^3) (0th day) / Tumor volume (mm^3) (24th day): average ± SEM, n = 9
Method: Experiment example 3: in vivo pharmacodynamics of human small cell lung cancer NCI-H69 cell subcutaneous xenograft tumor BALB/c nude mouse model:
Experimental animals: Female BALB/c nude mice, 6-8 weeks old, weighing 15-22 grams; supplier: Shanghai Linchang Biotechnology Co., LTD. (Linchang, Shanghai)
Human small cell lung cancer NCI-H69 cells (ATCC, item number: HTB-119 and ECACC-95111733) were cultured in vitro in a culture condition of RPMI-1640 medium with 10% fetal bovine serum, 100 U/mL penicillin and 100 μg/mL streptomycin, incubated at 37° C. and 5% CO2. Conventional passage was carried out twice a week. When cell saturation was 80%-90% and the number reaches the requirement, cells were collected, counted and inoculated.
0.2 mL (10×10^6) NCI-H69 cells (with matrix glue, and volume ratio of 1:1) were subcutaneously inoculated into a right back of each mouse, and group administration was initiated when the average tumor volume reaches about 110-120 mm^3.
The tested compound was prepared as a 5 mg/mL clarified solution with 10% DMSO+50% polyethylene glycol 400+40% water as the solvent.
(§1) The experimental indicators refers to study whether tumor growth was inhibited, delayed, or cured. Tumor diameter was measured twice a week with a vernier caliper. The calculation formula of the tumor volume was V=0.5a×b^2, and a and b represent the long diameter and short diameter of the tumor, respectively.
(§2) The antitumor efficacy of the compound was evaluated by TGI (%) or relative tumor proliferation rate T/C (%). TGI (%) reflects the tumor growth inhibition rate. The calculation of TGI (%): TGI (%)=[1−(average tumor volume at the end of administration of a certain treatment group−average tumor volume at the beginning of administration of the treatment group)/(average tumor volume at the end of treatment in solvent control group−average tumor volume at the beginning of treatment in solvent control group)]×control group.
(§3) Relative tumor proliferation rate T/C (%): the calculation formula was as follows: T/C %=[…] TRTV/CRTV group (TRTV: treatment group RTV; CRTV: negative control group RTV). According to results of tumor measurement, Relative Tumor Volume (RTV) was calculated by the formula RTV=Vt/V0, where V0 was the average tumor volume measured in group administration (i.e., d0), and Vt was the average tumor volume measured in a certain single measurement. TRTV and CRTV collect data on the same day.
(§4) Statistic analysis includes an average value and a standard error (SEM) of tumor volume at each time point for each group. […] If there was no significant difference in F value, Dunnet (2-sided) method was applied to analysis. All data were analyzed using SPSS 17.0. P<0.05 was considered as having a significant difference.

PI3K (p110σ/p85α) = biological target: T1, PI3K (p110σ/p85α) (Homo sapiens, UniProt O00329); test: PI3K (p110σ/p85α) kinase inhibitory activity (HTRF); type: biochemical
T1 construct: Eurofins Pharma Discovery Service (contract assay)
T1 sequence (O00329 whole entry): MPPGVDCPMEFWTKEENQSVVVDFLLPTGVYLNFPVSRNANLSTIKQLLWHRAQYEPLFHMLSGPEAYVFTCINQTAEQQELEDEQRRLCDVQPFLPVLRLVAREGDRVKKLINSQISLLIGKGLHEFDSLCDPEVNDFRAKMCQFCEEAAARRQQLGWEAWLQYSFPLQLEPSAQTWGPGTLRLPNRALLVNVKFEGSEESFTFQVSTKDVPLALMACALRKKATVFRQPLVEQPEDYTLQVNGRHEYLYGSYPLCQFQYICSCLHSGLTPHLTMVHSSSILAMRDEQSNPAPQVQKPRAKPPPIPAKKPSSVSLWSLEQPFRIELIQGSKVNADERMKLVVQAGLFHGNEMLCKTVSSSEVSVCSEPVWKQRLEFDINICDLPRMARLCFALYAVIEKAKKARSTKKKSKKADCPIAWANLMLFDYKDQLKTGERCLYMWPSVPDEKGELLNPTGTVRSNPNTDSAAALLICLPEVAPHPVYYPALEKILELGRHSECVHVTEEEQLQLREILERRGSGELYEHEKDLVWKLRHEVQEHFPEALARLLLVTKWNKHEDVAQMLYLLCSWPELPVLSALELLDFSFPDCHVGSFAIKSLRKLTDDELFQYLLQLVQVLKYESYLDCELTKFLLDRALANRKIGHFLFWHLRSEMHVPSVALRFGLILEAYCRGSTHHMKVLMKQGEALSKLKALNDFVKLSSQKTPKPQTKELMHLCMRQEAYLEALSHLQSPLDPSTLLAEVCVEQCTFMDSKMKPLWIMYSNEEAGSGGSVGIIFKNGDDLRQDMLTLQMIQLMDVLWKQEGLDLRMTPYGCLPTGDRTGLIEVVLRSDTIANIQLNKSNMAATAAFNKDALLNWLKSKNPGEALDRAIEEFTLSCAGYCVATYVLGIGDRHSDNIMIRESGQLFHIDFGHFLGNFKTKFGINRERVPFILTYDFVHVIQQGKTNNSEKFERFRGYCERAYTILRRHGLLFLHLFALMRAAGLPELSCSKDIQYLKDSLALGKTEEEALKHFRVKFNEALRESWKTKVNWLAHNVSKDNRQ
T1 sequence (P27986 whole entry partner): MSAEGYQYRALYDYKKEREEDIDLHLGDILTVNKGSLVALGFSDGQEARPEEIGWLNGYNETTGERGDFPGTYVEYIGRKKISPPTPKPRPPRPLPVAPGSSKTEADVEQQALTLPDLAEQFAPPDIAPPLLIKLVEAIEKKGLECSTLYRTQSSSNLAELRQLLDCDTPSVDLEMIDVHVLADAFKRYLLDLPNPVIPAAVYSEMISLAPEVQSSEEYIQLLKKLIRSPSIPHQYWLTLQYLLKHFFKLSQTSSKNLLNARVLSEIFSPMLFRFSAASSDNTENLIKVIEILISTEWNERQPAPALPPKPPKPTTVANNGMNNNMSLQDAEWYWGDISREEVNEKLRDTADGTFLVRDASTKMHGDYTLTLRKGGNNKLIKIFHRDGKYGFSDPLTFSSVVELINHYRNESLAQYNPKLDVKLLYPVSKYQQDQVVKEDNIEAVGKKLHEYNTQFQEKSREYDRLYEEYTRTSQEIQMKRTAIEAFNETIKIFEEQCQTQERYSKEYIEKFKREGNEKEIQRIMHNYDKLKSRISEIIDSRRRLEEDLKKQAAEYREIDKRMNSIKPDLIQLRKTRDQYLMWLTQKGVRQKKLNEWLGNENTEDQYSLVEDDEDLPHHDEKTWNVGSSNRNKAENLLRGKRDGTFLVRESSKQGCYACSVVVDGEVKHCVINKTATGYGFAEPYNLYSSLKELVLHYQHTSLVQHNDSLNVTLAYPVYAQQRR

[2] = system: human head and neck cancer FaDu cell subcutaneous xenograft tumor; test: FaDu subcutaneous xenograft, mono and combination with radiotherapy; type: in vivo; conditions: for Tumor volume (mm^3), 3 days after administration: day 3; for Tumor volume (mm^3), 3 days after administration / Tumor volume (mm^3), 7 days after administration / Tumor volume (mm^3), 10 days after administration / Tumor volume (mm^3), 14 days after administration / Tumor volume (mm^3), 17 days after administration / Tumor volume (mm^3), 23 days after administration / Tumor volume (mm^3), 28 days after administration / Tumor volume (mm^3), 31 days after administration / Tumor volume (mm^3), 35 days after administration / Tumor volume (mm^3), 42 days after administration / Tumor volume (mm^3), 49 days after administration / Tumor volume (mm^3), 56 days after administration / Tumor volume (mm^3), 63 days after administration / Tumor volume (mm^3), 70 days after administration / Tumor volume (mm^3) (0th day) / Tumor volume (mm^3) (21th day): average ± SEM, n = 8; for Tumor volume (mm^3), 7 days after administration: day 7; for Tumor volume (mm^3), 10 days after administration: day 10; for Tumor volume (mm^3), 14 days after administration: day 14; for Tumor volume (mm^3), 17 days after administration: day 17; for Tumor volume (mm^3), 23 days after administration: day 23; for Tumor volume (mm^3), 28 days after administration: day 28; for Tumor volume (mm^3), 31 days after administration: day 31; for Tumor volume (mm^3), 35 days after administration: day 35; for Tumor volume (mm^3), 42 days after administration: day 42; for Tumor volume (mm^3), 49 days after administration: day 49; for Tumor volume (mm^3), 56 days after administration: day 56; for Tumor volume (mm^3), 63 days after administration: day 63; for Tumor volume (mm^3), 70 days after administration: day 70; for RTV (21th day) / T/C (%) (21th day) / TGI (%) (21th day) / Tumor volume (mm^3) (0th day) / Tumor volume (mm^3) (21th day): PO
Method: Experiment purpose: The antitumor activity of the tested compound was evaluated in a nude mouse model of human head and neck cancer FaDu cell subcutaneous xenograft tumor
Experimental animals: Female BALB/c nude mice, 6-8 weeks old, weighing 17-23 grams; supplier: B&K Universal Group Limited
Human head and neck cancer FaDu cell (ATCC, Manassas. Virginiaite, item number: HTB-43) was cultured in vitro in a culture condition of EMEM medium with 10% fetal bovine serum, 100 U/mL penicillin and 100 μg/mL streptomycin, incubated at 37° C. and 5% CO2. Conventional digestive treatment passage was carried out using pancreatic enzyme—EDTA twice a week.
Each mouse was subcutaneously inoculated with 0.1 mL ([…]) FaDu cells at the right dorsal position, and when the average tumor volume reaches about 106 mm^3, randomization was used for initiating drug administration.
The tested compound was prepared as a 5 mg/mL clarified solution with 10% DMSO+50% polyethylene glycol 400+40% water as the solvent. Preparation was conducted every three days.
as §1, §2
as §3, with “RTV:” for “RTV;”, “measurement.” for “measurement,”
as §4

[3] = 10 mg/kg, BID + etoposide 10 mg/kg, IP
[4] = 20 mg/kg, QD + etoposide 10 mg/kg, IP
[5] = 40 mg/kg, PO, BID + etoposide 10 mg/kg, IP
[6] = 40 mg/kg, PO, QD + etoposide 10 mg/kg, IP
[7] = 25 mg/kg, QD + radiotherapy 2 Gy
[8] = 50 mg/kg, QD + radiotherapy 2 Gy

COc1ccc(C(O)c2cc(-c3cnnc4c(F)c(N5CCOCC5)cc(F)c34)c(F)cc2Cl)nn1 (single isomer, unassigned) [Embodiment 19]
RTV (24th day) [1, 3]: 4.93 ± 0.42
T/C (%) (24th day) [1, 3]: 61.2%
TGI (%) (24th day) [1, 3]: 46.5%
Tumor volume (mm^3) (0th day) ([1]; 10 mg/kg, BID + etoposide 10 mg/kg, IP, 3-day administration, 4-day withdrawal): 114 ± 9 mm^3
Tumor volume (mm^3) (24th day) [1, 3]: 548 ± 44 mm^3
RTV (24th day) [1, 4]: 4.08 ± 032
T/C (%) (24th day) [1, 4]: 50.6%
TGI (%) (24th day) [1, 4]: 56.8%
Tumor volume (mm^3) (0th day) ([1]; 20 mg/kg, QD + etoposide 10 mg/kg, IP, 3-day administration, 4-day withdrawal): 114 ± 7 mm^3
Tumor volume (mm^3) (24th day) [1, 4]: 464 ± 41 mm^3
RTV (24th day) ([1]; 40 mg/kg, BID, alone): 6.91 ± 0.18
T/C (%) (24th day) ([1]; 40 mg/kg, BID, alone): 85.8%
TGI (%) (24th day) ([1]; 40 mg/kg, BID, alone): 16.8%
Tumor volume (mm^3) (0th day) ([1]; 40 mg/kg, BID, alone): 114 ± 7 mm^3
Tumor volume (mm^3) (24th day) ([1]; 40 mg/kg, BID, alone): 789 ± 49 mm^3
RTV (24th day) [1, 5]: 2.28 ± 0.26
T/C (%) (24th day) [1, 5]: 28.4%
TGI (%) (24th day) [1, 5]: 81.5%
Tumor volume (mm^3) (0th day) ([1]; 40 mg/kg, PO, BID + etoposide 10 mg/kg, IP, 3-day administration, 4-day withdrawal): 114 ± 10 mm^3
Tumor volume (mm^3) (24th day) [1, 5]: 264 ± 37 mm^3
RTV (24th day) [1, 6]: 3.11 ± 0.18
T/C (%) (24th day) [1, 6]: 38.6%
TGI (%) (24th day) [1, 6]: 70.5%
Tumor volume (mm^3) (0th day) ([1]; 40 mg/kg, PO, QD + etoposide 10 mg/kg, IP, 3-day administration, 4-day withdrawal): 114 ± 7 mm^3
Tumor volume (mm^3) (24th day) [1, 6]: 353 ± 33 mm^3
IC50 (PI3K (p110σ/p85α)): 600 nM
Tumor volume (mm^3), 3 days after administration ([2]; 25 mg/kg + 2 Gy): 172 ± 16 mm^3
Tumor volume (mm^3), 7 days after administration ([2]; 25 mg/kg + 2 Gy): 136 ± 11 mm^3
Tumor volume (mm^3), 10 days after administration ([2]; 25 mg/kg + 2 Gy): 76 ± 11 mm^3
Tumor volume (mm^3), 14 days after administration ([2]; 25 mg/kg + 2 Gy): 29 ± 5 mm^3
Tumor volume (mm^3), 17 days after administration ([2]; 25 mg/kg + 2 Gy): 11 ± 3 mm^3
Tumor volume (mm^3), 23 days after administration ([2]; 25 mg/kg + 2 Gy): 1 ± 1 mm^3
Tumor volume (mm^3), 28 days after administration ([2]; 25 mg/kg + 2 Gy): 0 ± 0 mm^3
Tumor volume (mm^3), 31 days after administration ([2]; 25 mg/kg + 2 Gy): 0 ± 0 mm^3
Tumor volume (mm^3), 35 days after administration ([2]; 25 mg/kg + 2 Gy): 0 ± 0 mm^3
Tumor volume (mm^3), 42 days after administration ([2]; 25 mg/kg + 2 Gy): 0 ± 0 mm^3
Tumor volume (mm^3), 49 days after administration ([2]; 25 mg/kg + 2 Gy): 0 ± 0 mm^3
Tumor volume (mm^3), 56 days after administration ([2]; 25 mg/kg + 2 Gy): 0 ± 0 mm^3
Tumor volume (mm^3), 63 days after administration ([2]; 25 mg/kg + 2 Gy): 0 ± 0 mm^3
Tumor volume (mm^3), 70 days after administration ([2]; 25 mg/kg + 2 Gy): 0 ± 0 mm^3
RTV (21th day) [2, 7]: 0.01 ± 0.01
T/C (%) (21th day) [2, 7]: 0.08%
TGI (%) (21th day) [2, 7]: 108.61%
Tumor volume (mm^3) (0th day) ([2]; 25 mg/kg, QD + radiotherapy 2 Gy, 5-day radiotherapy, 2-day withdrawal): 106 ± 6 mm^3
Tumor volume (mm^3) (21th day) [2, 7]: 1 ± 1 mm^3
Tumor volume (mm^3), 3 days after administration ([2]; 50 mg/kg + 2 Gy): 175 ± 14 mm^3
Tumor volume (mm^3), 7 days after administration ([2]; 50 mg/kg + 2 Gy): 155 ± 17 mm^3
Tumor volume (mm^3), 10 days after administration ([2]; 50 mg/kg + 2 Gy): 97 ± 16 mm^3
Tumor volume (mm^3), 14 days after administration ([2]; 50 mg/kg + 2 Gy): 45 ± 10 mm^3
Tumor volume (mm^3), 17 days after administration ([2]; 50 mg/kg + 2 Gy): 12 ± 5 mm^3
Tumor volume (mm^3), 23 days after administration ([2]; 50 mg/kg + 2 Gy): 1 ± 1 mm^3
Tumor volume (mm^3), 28 days after administration ([2]; 50 mg/kg + 2 Gy): 1 ± 0 mm^3
Tumor volume (mm^3), 31 days after administration ([2]; 50 mg/kg + 2 Gy): 0 ± 0 mm^3
Tumor volume (mm^3), 35 days after administration ([2]; 50 mg/kg + 2 Gy): 0 ± 0 mm^3
Tumor volume (mm^3), 42 days after administration ([2]; 50 mg/kg + 2 Gy): 0 ± 0 mm^3
Tumor volume (mm^3), 49 days after administration ([2]; 50 mg/kg + 2 Gy): 0 ± 0 mm^3
Tumor volume (mm^3), 56 days after administration ([2]; 50 mg/kg + 2 Gy): 0 ± 0 mm^3
Tumor volume (mm^3), 63 days after administration ([2]; 50 mg/kg + 2 Gy): 0 ± 0 mm^3
Tumor volume (mm^3), 70 days after administration ([2]; 50 mg/kg + 2 Gy): 0 ± 0 mm^3
animal death or euthanasia during the study ([2]; 50 mg/kg alone, one animal of the group): euthanized 22 days after the start of administration
Tumor volume (mm^3), 3 days after administration ([2]; 50 mg/kg alone): 189 ± 18 mm^3
Tumor volume (mm^3), 7 days after administration ([2]; 50 mg/kg alone): 375 ± 28 mm^3
Tumor volume (mm^3), 10 days after administration ([2]; 50 mg/kg alone): 568 ± 50 mm^3
Tumor volume (mm^3), 14 days after administration ([2]; 50 mg/kg alone): 946 ± 108 mm^3
Tumor volume (mm^3), 17 days after administration ([2]; 50 mg/kg alone): 1120 ± 131 mm^3
Tumor volume (mm^3), 23 days after administration ([2]; 50 mg/kg alone): 1808 ± 372 mm^3
RTV (21th day) [2, 8]: 0.01 ± 0.01
T/C (%) (21th day) [2, 8]: 0.08%
TGI (%) (21th day) [2, 8]: 108.64%
Tumor volume (mm^3) (0th day) ([2]; 50 mg/kg, QD + radiotherapy 2 Gy, 5-day radiotherapy, 2-day withdrawal): 106 ± 5 mm^3
Tumor volume (mm^3) (21th day) [2, 8]: 1 ± 1 mm^3
RTV (21th day) ([2]; 50 mg/kg, QD, alone): 14.18 ± 2.04
T/C (%) (21th day) ([2]; 50 mg/kg, QD, alone): 114.35%
TGI (%) (21th day) ([2]; 50 mg/kg, QD, alone): −15.37%
Tumor volume (mm^3) (0th day) ([2]; 50 mg/kg, QD, alone): 106 ± 5 mm^3
Tumor volume (mm^3) (21th day) ([2]; 50 mg/kg, QD, alone): 1501 ± 242 mm^3
